This note sets out measurements from patent US20210186960A1, “MODULATORS OF INDOLEAMINE 2,3-DIOXYGENASE” (GLAXOSMITHKLINE INTELLECTUAL PROPERTY DEVELOPMENT LIMITED, priority 2017, published 2021).

Bounds are passed on as bounds.

Data set [1] has as its system human peripheral blood mononuclear cells (PBMC). The data set can be described thus: PBMC cytotoxicity assay (CellTiter-Glo). In kind it is cell-based. The note with it: pCC50, CellTiter-Glo, stimulated human PBMC, 2 days. How it is done: Compounds of the present invention were tested via high-throughput cellular assays utilizing detection of kynurenine via mass spectrometry and cytotoxicity as end-points. For the mass spectrometry and cytotoxicity assays, human peripheral blood mononuclear cells (PBMC) (PB003F; AllCells®, Alameda, Calif.) were stimulated with human interferon-γ (IFN-γ) (Sigma-Aldrich Corporation, St. Louis, Mo.) and lipopolysaccharide from Salmonella minnesota (LPS) (Invivogen, San Diego, Calif.) to induce the expression of indoleamine 2, 3-dioxygenase (IDO1). Compounds with IDO1 inhibitory properties decreased the amount of kynurenine produced by the cells via the tryptophan catabolic pathway. Cellular toxicity due to the effect of compound treatment was measured using CellTiter-Glo® reagent (CTG) (Promega Corporation, Madison, Wis.), which is based on luminescent detection of ATP, an indicator of metabolically active cells.
In preparation for the assays, test compounds were serially diluted 3-fold in
DMSO from a typical top concentration of 1 mM or 5 mM and plated at 0.5 μL in 384-well, polystyrene, clear bottom, tissue culture treated plates with lids (Greiner Bio-One, Kremsmünster, Austria) to generate 11-point dose response curves. Low control wells (0% kynurenine or 100% cytotoxicity) contained either 0.5 μL of DMSO in the presence of unstimulated (−IFN-γ/−LPS) PBMCs for the mass spectrometry assay or 0.5 μL of DMSO in the absence of cells for the cytotoxicity assay, and high control wells (100% kynurenine or 0% cytotoxicity) contained 0.5 μL of DMSO in the presence of stimulated (+IFN-γ/+LPS) PBMCs for both the mass spectrometry and cytotoxicity assays.
Frozen stocks of PBMCs were washed and recovered in RPMI 1640 medium (Thermo Fisher Scientific, Inc., Waltham, Mass.) supplemented with 10% v/v heat-inactivated fetal bovine serum (FBS) (Thermo Fisher Scientific, Inc., Waltham, Mass.), and 1× penicillin-streptomycin antibiotic solution (Thermo Fisher Scientific, Inc., Waltham, Mass.). The cells were diluted to 1,000,000 cells/mL in the supplemented RPMI 1640 medium. 50 μL of either the cell suspension, for the mass spectrometry assay, or medium alone, for the cytotoxicity assay, were added to the low control wells, on the previously prepared 384-well compound plates, resulting in 50,000 cells/well or 0 cells/well respectively. IFN- y and LPS were added to the remaining cell suspension at final concentrations of 100 ng/ml and 50 ng/ml respectively, and 50 μL of the stimulated cells were added to all remaining wells on the 384-well compound plates. The plates, with lids, were then placed in a 37 °C, 5% CO2 humidified incubator for 2 days.
Following incubation, the 384-well plates were removed from the incubator and allowed to equilibrate to room temperature for 30 minutes. For the cytotoxicity assay, CellTiter-Glo® was prepared according to the manufacturer's instructions, and 40 μL were added to each plate well. After a twenty minute incubation at room temperature, luminescence was read on an EnVision® Multilabel Reader (Perkin Elmer Inc., Waltham, Mass.). For the mass spectrometry assay, 10 μL of supernatant from each well of the compound-treated plates were added to 40 μL of acetonitrile, containing 10 μM of an internal standard for normalization, in 384-well, polypropylene, V-bottom plates (Greiner Bio-One, Kremsmunster, Austria) to extract the organic analytes. Following centrifugation at 2000 rpm for 10 minutes, 10 μL from each well of the acetonitrile extraction plates were added to 90 μL of sterile, distilled H2O in 384-well, polypropylene, V-bottom plates for analysis of kynurenine and the internal standard on the RapidFire 300 (Agilent Technologies, Santa Clara, Calif.) and 4000 QTRAP MS (SCIEX, Framingham, Mass.). MS data were integrated using Agilent Technologies' RapidFire Integrator software, and data were normalized for analysis as a ratio of kynurenine to the internal standard. […]

A short description of data set [2]: Rat oral PK studies of prodrugs at 5 mg/kg. It counts as in vivo. The note with it: after PO dose of 5 mg/kg example 7 in male Wistar Han rat; analyte as labelled. How it is done: Rat oral PK studies of prodrugs at 5 mg/kg dose (solution in 100% (40 mg oleic acid+25mg Tween 80+2 mL of PBS/fresh) at 0.5 mg/mL).

Regarding `CC(C)CN(c1ccc([C@H](C)CC(=O)O)cc1Nc1cnc(Cl)cn1)C1CCOCC1` [intermediate C4], in data set [1], the “PBMC TOX PXC50” value is less than 5. Further, the DNAUC0_20 in data set [2] came out at 126.6 ng·h/mL.
